According to ChEMBL document CHEMBL1201862, “PubChem BioAssay data set” (2004):
Active and inactive are the calls of the source.

Assays:
Streptokinase A = biological target: T1, Streptokinase A (Streptococcus pyogenes serotype M1, UniProt P10520); assay: viability-normalized secreted streptokinase activity reduction – plasminogen activation absorbance, OD405, dose response (AID 1914); assay type: functional, Streptococcus pyogenes M1 GAS;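 further: secreted streptokinase activity via plasminogen activation per viability signal from cell pellet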
T1 sequence (P10520 whole entry): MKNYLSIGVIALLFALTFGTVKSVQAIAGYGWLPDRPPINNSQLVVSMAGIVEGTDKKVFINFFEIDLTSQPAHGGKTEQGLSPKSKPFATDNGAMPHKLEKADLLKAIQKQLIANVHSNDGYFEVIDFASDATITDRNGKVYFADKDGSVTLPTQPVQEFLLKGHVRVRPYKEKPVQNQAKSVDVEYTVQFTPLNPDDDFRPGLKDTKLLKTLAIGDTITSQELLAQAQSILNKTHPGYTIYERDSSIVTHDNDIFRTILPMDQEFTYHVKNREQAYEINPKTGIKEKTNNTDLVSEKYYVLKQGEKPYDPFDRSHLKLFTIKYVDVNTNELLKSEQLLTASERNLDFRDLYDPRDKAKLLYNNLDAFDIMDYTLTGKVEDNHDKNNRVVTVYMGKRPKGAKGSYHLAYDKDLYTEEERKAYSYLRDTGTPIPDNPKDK

[1] = biological target: Voltage-dependent T-type calcium channel subunit alpha-1H (Homo sapiens, UniProt O95180); assay type: functional;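 further: channel activity triggered by adding a high calcium stimulation buffer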
[2] = test system: Streptococcus sp. 'group A'; assay: Streptococcus pyogenes SK(-)GAS viability under kanamycin – luminescence, BacTiterGlo, confirmation, counter-screen for streptokinase expression inhibitor project, dose response (AID 1900); assay type: functional, organism-based
Streptococcus = assay: GAS UMAA2166 growth inhibition – luminescence, BacTiterGlo, counter-screen for streptokinase expression inhibitor project, dose response (AID 1915); assay type: functional, organism-based;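 further: potency for reduction of bacterial viability or growth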
[3] = biological target: T2, Polyadenylate-binding protein 1 (Homo sapiens, UniProt P11940); assay: MLLE domain peptide-binding blockers, IC50 – biochemical, fluorescence polarization, FITC-PAM2 peptide, dose response (AID 602259); assay type: functional; details: read-out: IC50_Mean
[4] = biological target: T2, Polyadenylate-binding protein 1; assay: MLLE binding blockers, Cy5 peptide tracer – biochemical, fluorescence polarization, Cy5-PAM2 peptide, secondary, miRNA deadenylation inhibitor project, dose response (AID 602260); assay type: functional; details: read-out: IC50_Mean
[5] = biological target: T3, DNA repair and recombination protein RAD54-like (Homo sapiens, UniProt Q92698); assay: RAD54 Holliday junction migration blockers – biochemical, fluorescence, cherry-picked samples, dose series, confirmation (AID 651657); assay type: functional
T3 sequence (Q92698 whole entry): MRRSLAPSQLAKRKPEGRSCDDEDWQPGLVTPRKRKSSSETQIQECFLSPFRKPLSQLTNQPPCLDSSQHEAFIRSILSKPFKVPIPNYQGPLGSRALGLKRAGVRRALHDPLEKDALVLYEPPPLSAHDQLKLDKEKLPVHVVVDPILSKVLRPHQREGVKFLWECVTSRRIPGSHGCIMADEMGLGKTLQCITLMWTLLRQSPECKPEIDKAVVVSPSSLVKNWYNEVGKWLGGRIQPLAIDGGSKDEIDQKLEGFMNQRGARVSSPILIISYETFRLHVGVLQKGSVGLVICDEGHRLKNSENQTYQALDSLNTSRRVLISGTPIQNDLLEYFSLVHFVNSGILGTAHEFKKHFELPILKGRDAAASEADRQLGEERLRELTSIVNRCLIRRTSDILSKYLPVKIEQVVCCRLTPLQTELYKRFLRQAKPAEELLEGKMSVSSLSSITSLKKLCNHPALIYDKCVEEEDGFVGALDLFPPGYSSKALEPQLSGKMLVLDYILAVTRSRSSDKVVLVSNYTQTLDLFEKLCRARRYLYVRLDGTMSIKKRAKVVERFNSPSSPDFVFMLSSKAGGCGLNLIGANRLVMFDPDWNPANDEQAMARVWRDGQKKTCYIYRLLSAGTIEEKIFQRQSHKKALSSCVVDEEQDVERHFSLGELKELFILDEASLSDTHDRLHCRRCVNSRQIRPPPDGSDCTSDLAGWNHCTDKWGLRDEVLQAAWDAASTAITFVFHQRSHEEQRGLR

[6] = biological target: T4, High affinity choline transporter 1 (Homo sapiens, UniProt Q9GZV3); assay: human choline transporter blockers, potency – cell-based, 5-point CRC, membrane potential dye, dose response (AID 504840); assay type: functional
T4 sequence (Q9GZV3 whole entry): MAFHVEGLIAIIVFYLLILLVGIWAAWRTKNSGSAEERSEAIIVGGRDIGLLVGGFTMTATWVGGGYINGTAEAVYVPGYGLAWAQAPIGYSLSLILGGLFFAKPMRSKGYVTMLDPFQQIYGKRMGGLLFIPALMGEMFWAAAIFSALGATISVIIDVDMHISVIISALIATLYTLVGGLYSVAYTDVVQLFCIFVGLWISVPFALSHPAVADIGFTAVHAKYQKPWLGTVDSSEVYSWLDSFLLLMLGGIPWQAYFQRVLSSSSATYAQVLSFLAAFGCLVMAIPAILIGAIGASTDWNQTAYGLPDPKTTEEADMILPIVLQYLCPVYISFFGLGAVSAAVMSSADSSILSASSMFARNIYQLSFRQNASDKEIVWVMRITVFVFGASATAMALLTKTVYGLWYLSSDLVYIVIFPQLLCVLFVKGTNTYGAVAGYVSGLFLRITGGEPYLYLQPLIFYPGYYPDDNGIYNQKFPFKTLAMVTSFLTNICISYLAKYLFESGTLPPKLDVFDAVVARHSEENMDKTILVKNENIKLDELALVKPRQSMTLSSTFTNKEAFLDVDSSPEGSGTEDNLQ

[7] = biological target: T5, Carboxy-terminal domain RNA polymerase II polypeptide A small phosphatase 1 (Homo sapiens, UniProt Q9GZU7); assay: CTDSP1 inhibitors, concentration-response, biochemical, absorbance readout, ultra-high-throughput screen actives (AID 540297); assay type: functional
T5 sequence (Q9GZU7 whole entry): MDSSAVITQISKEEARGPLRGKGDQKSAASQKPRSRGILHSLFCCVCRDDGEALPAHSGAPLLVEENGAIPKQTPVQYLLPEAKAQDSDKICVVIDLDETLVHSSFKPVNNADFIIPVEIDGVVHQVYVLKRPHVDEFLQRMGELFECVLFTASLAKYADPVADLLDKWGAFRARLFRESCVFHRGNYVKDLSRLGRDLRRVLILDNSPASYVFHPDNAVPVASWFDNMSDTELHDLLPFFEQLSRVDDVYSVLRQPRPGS

[8] = biological target: T6, Low molecular weight phosphotyrosine protein phosphatase (Homo sapiens, UniProt P24666); assay type: functional; details: read-out: IC50_Mean;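 further: Dose-response confirmation assay measuring inhibition of LMPTP enzyme activity by fluorescence intensity read-out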
T6 sequence (P24666 whole entry): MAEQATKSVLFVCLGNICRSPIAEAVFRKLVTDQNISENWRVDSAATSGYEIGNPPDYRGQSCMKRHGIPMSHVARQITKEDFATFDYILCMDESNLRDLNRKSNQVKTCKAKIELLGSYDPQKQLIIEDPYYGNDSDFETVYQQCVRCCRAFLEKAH

cells = assay type: functional
[9] = Vero E6 cell cytotoxicity, dose response, cytotoxicity control for non-replicating M. tuberculosis project, secondary assay (AID 492998); assay type: functional, VeroE6; details: Vero C1008
[10] = THP-1 cell cytotoxicity, dose response, cytotoxicity control for non-replicating M. tuberculosis project (AID 489025); assay type: functional
[11] = Luminescence Cell-Based Dose Confirmation HTS to Identify Activators of 5'UTR Stem-Loop Driven Alpha-Synuclein mRNA Translation in H4 Neuroglioblastoma Cells. [Related pubchem assays: 1829 (Project Summary), 1814 (Primary HTS)]; assay type: functional
[12] = M. tuberculosis H37Rv growth inhibitors, H37Rv strain (AID 1626); assay type: functional
[13] = Luminescence Cell-Based Dose Response HTS to Identify Activators of Luciferase Translation or Activity in H4 […] Cells. [Related pubchem assays: 1829 (Project Summary), 1814 (Primary HTS)]; assay type: functional
H4 = assay: Luminescence Cell-Based Dose Response HTS to Identify Activators of 5'UTR Stem-Loop Driven Prion Protein mRNA Translation in H4 Neuroglioblastoma Cells. [Related pubchem assays: 1829 (Project Summary), 1814 (Primary HTS)]; assay type: functional; details: Homo sapiens
H9c2 = assay: cells; assay type: functional, cell-based; details: Rattus norvegicus, H9c2, Myocardium;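 further: confirmatory concentration-response retest of ultra-high-throughput screening hits for modulation of myocardial damage; cell death induced by hydrogen peroxide oxidative stress; compound pretreatment for 60 min then peroxide exposure for 2 h; potency is for protecting the cells against peroxide damage rather than for killing them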
[14] = biological target: Induced myeloid leukemia cell differentiation protein Mcl-1 (Homo sapiens, UniProt Q07820); assay type: functional
INS1 = assay: INS-1E survival protection against cytokine death – cell-based, luminescence, retest, dose response (AID 449756); assay type: functional; details: Rattus norvegicus;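 further: cell death triggered by IL-1 beta plus TNF-alpha plus IFN-gamma mixture; protective hits raise ATP signal compared with cytokine alone wells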

T2 sequence (P11940 whole entry, the tested form may be a part): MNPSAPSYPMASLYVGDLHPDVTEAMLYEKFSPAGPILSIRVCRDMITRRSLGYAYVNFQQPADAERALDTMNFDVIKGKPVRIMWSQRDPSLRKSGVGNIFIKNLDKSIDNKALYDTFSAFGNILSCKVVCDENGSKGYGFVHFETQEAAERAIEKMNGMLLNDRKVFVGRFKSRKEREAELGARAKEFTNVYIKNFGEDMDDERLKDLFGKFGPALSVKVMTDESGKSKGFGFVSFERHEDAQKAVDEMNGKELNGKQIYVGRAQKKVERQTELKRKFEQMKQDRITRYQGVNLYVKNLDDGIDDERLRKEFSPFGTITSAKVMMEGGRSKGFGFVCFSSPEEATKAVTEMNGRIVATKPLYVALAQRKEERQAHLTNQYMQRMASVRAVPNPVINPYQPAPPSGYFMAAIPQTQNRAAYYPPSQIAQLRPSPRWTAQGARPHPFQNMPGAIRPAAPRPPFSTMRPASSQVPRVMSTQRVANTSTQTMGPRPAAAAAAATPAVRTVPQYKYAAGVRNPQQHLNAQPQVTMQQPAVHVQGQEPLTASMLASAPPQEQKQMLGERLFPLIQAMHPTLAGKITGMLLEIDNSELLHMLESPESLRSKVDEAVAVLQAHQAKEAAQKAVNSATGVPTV
Sequence of Voltage-dependent T-type calcium channel subunit alpha-1H (O95180 whole entry): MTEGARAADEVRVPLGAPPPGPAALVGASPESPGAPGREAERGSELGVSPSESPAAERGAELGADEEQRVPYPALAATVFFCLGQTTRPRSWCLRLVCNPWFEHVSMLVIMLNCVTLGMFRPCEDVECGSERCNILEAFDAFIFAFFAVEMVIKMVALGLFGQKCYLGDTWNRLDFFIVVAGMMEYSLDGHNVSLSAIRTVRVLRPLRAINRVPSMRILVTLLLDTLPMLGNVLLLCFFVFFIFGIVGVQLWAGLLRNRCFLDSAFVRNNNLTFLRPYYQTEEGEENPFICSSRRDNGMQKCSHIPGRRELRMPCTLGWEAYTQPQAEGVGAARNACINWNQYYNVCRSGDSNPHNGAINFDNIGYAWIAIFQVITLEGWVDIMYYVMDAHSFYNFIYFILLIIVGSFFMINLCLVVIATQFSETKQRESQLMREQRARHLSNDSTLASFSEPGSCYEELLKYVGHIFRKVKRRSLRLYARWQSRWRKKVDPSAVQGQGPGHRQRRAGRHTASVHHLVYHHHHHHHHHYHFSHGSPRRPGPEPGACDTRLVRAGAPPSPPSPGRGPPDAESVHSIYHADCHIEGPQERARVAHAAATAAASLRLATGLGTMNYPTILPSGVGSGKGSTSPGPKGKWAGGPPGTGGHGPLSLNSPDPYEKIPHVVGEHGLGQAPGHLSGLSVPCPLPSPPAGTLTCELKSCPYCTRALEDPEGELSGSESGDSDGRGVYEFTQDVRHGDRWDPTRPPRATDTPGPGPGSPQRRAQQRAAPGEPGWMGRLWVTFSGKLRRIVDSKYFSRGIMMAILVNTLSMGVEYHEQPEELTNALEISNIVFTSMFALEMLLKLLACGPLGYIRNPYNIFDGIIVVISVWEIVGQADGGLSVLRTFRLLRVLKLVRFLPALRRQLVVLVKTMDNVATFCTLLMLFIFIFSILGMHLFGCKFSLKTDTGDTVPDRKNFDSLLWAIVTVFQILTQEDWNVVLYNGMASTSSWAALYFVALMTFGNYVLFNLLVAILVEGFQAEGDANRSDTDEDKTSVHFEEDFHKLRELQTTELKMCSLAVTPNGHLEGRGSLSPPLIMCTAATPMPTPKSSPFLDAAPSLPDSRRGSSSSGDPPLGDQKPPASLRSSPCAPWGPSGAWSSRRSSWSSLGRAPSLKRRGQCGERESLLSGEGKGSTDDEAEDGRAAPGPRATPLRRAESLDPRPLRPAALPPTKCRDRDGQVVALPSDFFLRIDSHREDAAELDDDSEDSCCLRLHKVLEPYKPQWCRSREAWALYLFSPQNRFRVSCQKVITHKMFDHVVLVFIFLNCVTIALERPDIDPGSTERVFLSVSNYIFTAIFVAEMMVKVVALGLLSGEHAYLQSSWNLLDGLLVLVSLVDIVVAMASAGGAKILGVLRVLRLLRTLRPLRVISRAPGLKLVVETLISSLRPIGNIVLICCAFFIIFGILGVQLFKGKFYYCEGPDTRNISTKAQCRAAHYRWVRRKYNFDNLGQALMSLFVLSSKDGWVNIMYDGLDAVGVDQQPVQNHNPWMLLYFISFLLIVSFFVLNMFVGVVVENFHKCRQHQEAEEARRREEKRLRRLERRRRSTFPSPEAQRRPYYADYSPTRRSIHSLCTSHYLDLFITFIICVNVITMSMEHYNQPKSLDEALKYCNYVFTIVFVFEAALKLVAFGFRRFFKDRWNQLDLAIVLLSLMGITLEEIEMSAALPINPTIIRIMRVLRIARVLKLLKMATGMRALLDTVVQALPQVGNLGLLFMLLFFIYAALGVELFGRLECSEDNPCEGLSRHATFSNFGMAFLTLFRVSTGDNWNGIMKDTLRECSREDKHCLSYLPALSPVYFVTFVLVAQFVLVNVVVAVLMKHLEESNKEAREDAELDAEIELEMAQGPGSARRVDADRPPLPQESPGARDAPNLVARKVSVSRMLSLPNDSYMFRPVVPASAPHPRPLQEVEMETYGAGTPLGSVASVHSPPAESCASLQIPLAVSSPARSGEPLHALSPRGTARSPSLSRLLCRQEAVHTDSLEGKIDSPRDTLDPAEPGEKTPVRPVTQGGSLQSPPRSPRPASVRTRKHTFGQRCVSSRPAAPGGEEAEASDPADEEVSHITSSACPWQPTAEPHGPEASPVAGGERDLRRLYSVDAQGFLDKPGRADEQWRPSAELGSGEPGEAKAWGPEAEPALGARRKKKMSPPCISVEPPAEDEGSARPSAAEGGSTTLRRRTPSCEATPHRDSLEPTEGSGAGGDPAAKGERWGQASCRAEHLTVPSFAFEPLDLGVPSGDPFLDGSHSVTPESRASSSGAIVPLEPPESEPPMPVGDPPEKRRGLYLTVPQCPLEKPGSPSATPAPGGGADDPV
Sequence of Induced myeloid leukemia cell differentiation protein Mcl-1 (Q07820 whole entry): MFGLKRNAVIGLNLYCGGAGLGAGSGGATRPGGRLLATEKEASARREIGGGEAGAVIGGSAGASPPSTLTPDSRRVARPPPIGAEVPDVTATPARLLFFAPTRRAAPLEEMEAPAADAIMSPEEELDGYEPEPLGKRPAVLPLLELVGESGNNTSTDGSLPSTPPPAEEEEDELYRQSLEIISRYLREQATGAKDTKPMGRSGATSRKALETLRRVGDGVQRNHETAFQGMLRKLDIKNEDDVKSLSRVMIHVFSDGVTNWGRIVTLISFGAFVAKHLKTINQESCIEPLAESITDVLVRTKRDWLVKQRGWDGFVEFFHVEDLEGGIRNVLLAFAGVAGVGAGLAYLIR

SMILES: Cn1cc(C(=O)c2ccc(Cl)cc2Cl)cc1C(=O)NN=C(N)COc1cccc(C(F)(F)F)c1
- EC50 (Streptokinase A): 133 µM (active)
- EC50 [1]: 2.61 µM (active)
- EC50 [2]: 2.31 µM (active)
- EC50 (Streptococcus): > 150 µM (not active)

SMILES: CCCNC(=O)NCCc1c(C)[nH]c2ccccc12
- IC50 [3]: 45.9 µM (inactive)
- IC50 [4]: > 66 µM (inactive)

SMILES: Cc1cccn2c(=O)c3cc(C(=O)NCC4CCCO4)c(=N)n(C4CCCCC4)c3nc12 (stereo not given)
- AC50 [5]: 56 µM (active)

SMILES: COc1ccccc1C(CNC(=O)c1cccc(NS(=O)(=O)c2ccc(C)c(F)c2)c1)N1CCCC1 (stereo not given)
- IC50 [6]: 12.5 µM (active)

SMILES: Cc1cccc(NC(=O)COc2ccc(/C=C\c3nc(O)nc(O)c3[N+](=O)[O-])cc2)c1
- IC50 [7]: 1.78 µM (active)
- IC50 [8]: 80 µM (inactive)

SMILES: Cc1cccc(-c2noc(CN(C(=O)c3ccc4c(c3)OCO4)C(C)C)n2)c1
- EC50 [1]: 8.31 µM (active)

SMILES: CCOc1cc2[nH]c(=O)n(Cc3ccc(C(=O)NCCCN4CCC(C)CC4)cc3)c(=O)c2cc1OCC
- AC50 [5]: 55.9 µM (active)

SMILES: CCC(C)(C)n1nnnc1C(c1ccc(C)cc1)N1CCN(Cc2ccc3c(c2)OCO3)CC1 (stereo not given)
- EC50 [1]: 6.68 µM (active)

SMILES: O=C(CCN1CCOCC1)NNC(=S)NC(=O)c1ccccc1
- IC50 [3]: > 66 µM (inactive)
- IC50 [4]: > 66 µM (inactive)

SMILES: CCn1c(NC(=O)c2ccccc2)nc2ccccc21
- IC50 (cells): 1.94 µM (active)
- CC50 [9]: 19.6 µM (active)
- CC50 [10]: > 40 µM (active)

SMILES: O=C(OCc1nc2ccccc2s1)c1cccs1
- EC50 [1]: 12.2 µM (active)

SMILES: CCCc1nc2c(C)cc(Br)cn2c1Cc1ccsc1
- IC50 [3]: 41.9 µM (inactive)
- IC50 [4]: 35.7 µM (inactive)

SMILES: Cn1cnnc1SCc1ccc(-c2ccc(Br)cc2)o1
- EC50 [11]: 20.7 µM (active)
- IC50 [12]: > 100 µM (active)
- EC50 [13]: 21.2 µM (active)
- EC50 (H4): 22.2 µM (active)

SMILES: CCN(Cc1ccccc1)C(c1ccccn1)c1nnnn1C1CCCCC1 (stereo not given)
- EC50 [1]: 3.93 µM (active)

SMILES: O=C(N=Nc1c(O)[nH]c2ccc(F)cc12)c1ccc(NS(=O)(=O)c2cccs2)cc1
- IC50 [8]: 80 µM (inactive)

SMILES: COc1cccc(N2CCN(C(=O)C3CCCN(c4ncnc5c4nc4n5CCCCC4)C3)CC2)c1 (stereo not given)
- IC50 [6]: 16.6 µM (active)

SMILES: COc1cccc(/C=N/NC(=O)c2ccncc2)c1OC(=O)c1ccc(Br)cc1
- IC50 [3]: 25.1 µM (inactive)
- IC50 [4]: > 66 µM (inactive)
- IC50 (H9c2): 12.8 µM (active)

SMILES: CCCn1c2ccccc2c2cnn(CC(=O)NCCCN3CCCCC3CC)c(=O)c21 (stereo not given)
- IC50 [6]: 13.6 µM (active)

SMILES: Cc1[nH]c2ccccc2c1C(=O)CN1CCCC(C)C1 (stereo not given)
- IC50 [6]: 15.8 µM (active)

SMILES: O=C(O)CSc1cc(C(=O)c2cc(F)ccc2O)cn2c(=O)c3c(-c4ccccc4)csc3nc12
- IC50 [6]: 16.6 µM (active)
- IC50 [14]: 2.79 µM (active)

SMILES: Cc1csc2nc(NC(=O)c3ccccc3)sc(=O)c12
- IC50 [7]: 7.03 µM (active)
- IC50 [8]: 29.8 µM (inactive)
- AC50 (INS1): > 260 µM (inactive)

SMILES: N=c1n(CCN2CCCC2)c2ccccc2n1CC(O)c1ccco1 (stereo not given)
- IC50 [3]: > 66 µM (inactive)
- IC50 [4]: > 66 µM (inactive)
